Data taken from US20160047819A1, “METHOD FOR DIAGNOSING VAGINAL INFECTIONS” (priority 2013, published 2016).

Tested on: vaginal proteome (human proteins in vaginal fluid)
Test: MS/MS proteomic analysis of vaginal fluid pools, BV-affected women before (BV) and after rifaximin/placebo treatment: human proteins
Assay type: in vivo
Procedure: Proteomic analysis was performed on 9 pools of vaginal isolates, grouped according to the status of the BV infection: • H pool (from 41 healthy women); BV pool (from 39 BV-affected women); • A-R pool (from 2 women who were in remission after rifaximin treatment-group A); • A-N pool (from 8 women who were not in remission after rifaximin treatment-group A); • B-R pool (from 5 women who were in remission after rifaximin treatment-group B); • B-N pool (from 5 women who were not in remission after rifaximin treatment-group B); • C-R pool (from 4 women who were in remission after rifaximin treatment-group C); • C-N (from 5 women who were not in remission after rifaximin treatment-group C); • D-N (from 10 women who were not in remission after placebo treatment-group D). Scheme of the vaginal fluids collected for testing the diagnostic method is represented in FIG. 1.
In these figures are reported the peptides in the fractionated pools of healthy women, women affected by BV and peptides of women treated with rifaximin. The treatment with rifaximin was at dosage of 100 mg/day for 5 days; (remission, A-R; no remission, A-N), 25 mg/5 days (remission, B-R; no remission, B-N), 100 mg/2 days (remission, C-R; no remission, C-N), and placebo for 5 days (D-N). Two types of comparisons were carried out: (i) between fractionated pools of proteins from vaginal fluid of healthy women (HF) versus fractionated pool of proteins from vaginal fluid of women affected by bacterial vaginosis (BVF); (ii) between whole pools of proteins from vaginal fluid of women affected by BV treated by administering different doses of rifaximin or placebo before (BV) and after (A-R, A-N, B-R, B-N, C-R, C-N, D-N) treatment. Fractioned pools of proteins are obtained, e.g., by separating the proteins by separation on membrane filtration with different membrane porosity, prior to MS/MS analysis.
Nine volumes of acetone: HCl (10:1) were added to the supernatant of the vaginal rinsing and proteins were precipitated by centrifuging at 12000 g for 10 min. The protein pellet was dissolved in 1 mL of 70% ethanol and the sample was spun at 12000 g for 10 min. One mL of acetone was added and the proteins were further precipitated by centrifugation at 12000 g for 5 min. After removing supernatant, pellet was dried by SpeedVac concentrator (Thermo Savant ISS110, Thermo Fisher Scientific, Waltham, Mass.) and then stored at −20° C.
Protein extract was quantified using the 2-D Quant Kit (GE Healthcare, Uppsala, Sweden) according to the manufacturer's instructions.
Patients who were diagnosed for BV at the study visit V1 were included in a multicentre, double-blind, randomised, placebo-controlled study (EudraCT: 2009-011826-32), that was performed to compare the efficacy of different doses of rifaximin vaginal tablets versus placebo for the treatment of BV. The patients underwent a randomisation visit and were distributed into 4 treatment groups: group A received 100 mg rifaximin vaginal tablet once daily for 5 days (n=10), group B received 25 mg rifaximin vaginal tablet once daily for 5 days (n=10), group C received 100 mg rifaximin vaginal tablet once daily for the first 2 days and placebo vaginal tablet for the remaining 3 days (n=9), group D received placebo vaginal tablet once daily for 5 days (n=10). Study medication was administered intra-vaginally at bedtime. After 7 to 10 days from the end of the therapy a follow-up visit (V3) was performed. Remission was evaluated at V3 according to Amsel's criteria (<3) and Gram stain Nugent score (≦3) (Table 1).
Standardized vaginal rinsings with 2 mL of saline were collected for analysis at V1 and V3 by flushing and re-aspirating the fluid through a 22 Gauge needle in the left, central and right upper vaginal vaults. The vaginal rinsings were subsequently stored at −80° C. until use.
MS/MS analysis was carried out for H and BV pools and for the whole BV, A-R, A-N, B-R, B-N, C-R, C-N and D-N pools containing 50 μg of protein each. […]

CO[C@H]1/C=C/O[C@@]2(C)Oc3c(C)c(O)c4c(O)c(c5c(nc6cc(C)ccn65)c4c3C2=O)NC(=O)/C(C)=C\C=C\[C@H](C)[C@H](O)[C@@H](C)[C@@H](O)[C@@H](C)[C@H](OC(C)=O)[C@@H]1C [rifaximin]
Ratio X/H Sciellin (O95171) (pool C-N after treatment): 0.0 | Ratio X/H Semenogelin-2 (Q02383) (pool C-N after treatment): −1.8 | Ratio X/H Serine protease 27 (Q9BQR3) (pool C-N after treatment): 0.0 | Ratio X/H Serine/threonine-protein kinase ULK1 (O75385) (pool C-N after treatment): −1.7 | Ratio X/H Serotransferrin (P02787) (pool C-N after treatment): −1.5 | Ratio X/H Serpin B3 (P29508) (pool C-N after treatment): 1.6 | Ratio X/H Serpin B4 (P48594) (pool C-N after treatment): 0.0 | Ratio X/H Serpin B5 (P36952) (pool C-N after treatment): −2.6 | Ratio X/H Serpin B6 (P35237) (pool C-N after treatment): 0.0 | Ratio X/H Serpin B9 (P50453) (pool C-N after treatment): 0.0 | Ratio X/H Serpin B12 (Q96P63) (pool C-N after treatment): 0.0 | Ratio X/H Serpin B13 (Q9UIV8) (pool C-N after treatment): 0.0 | Ratio X/H Serum albumin (P02768) (pool C-N after treatment): −1.6 | Ratio X/H Serum paraoxonase/arylesterase 1 (P27169) (pool C-N after treatment): 1.5 | Ratio X/H Small proline-rich protein 3 (Q9UBC9) (pool C-N after treatment): 1.7 | Ratio X/H Stanniocalcin-1 (P52823) (pool C-N after treatment): 4.0 | Ratio X/H Sulfhydryl oxidase 1 (O00391) (pool C-N after treatment): 0.0 | Ratio X/H Superoxide dismutase [Cu—Zn] (P00441) (pool C-N after treatment): 0.0 | Ratio X/H Suprabasin (Q6UWP8) (pool C-N after treatment): 3.9 | Ratio X/H Syntenin-1 (O00560) (pool C-N after treatment): 0.0 | Ratio X/H Talin-1 (Q9Y490) (pool C-N after treatment): 0.0 | Ratio X/H Tctex1 domain-containing protein 2 (Q8WW35) (pool C-N after treatment): −13.6 | Ratio X/H Teneurin-3 (Q9P273) (pool C-N after treatment): 10.2 | Ratio X/H Thioredoxin (P10599) (pool C-N after treatment): 0.0 | Ratio X/H Transaldolase (P37837) (pool C-N after treatment): −2.2 | Ratio X/H Transmembrane protease serine 11D (O60235) (pool C-N after treatment): 0.0 | Ratio X/H Transthyretin (P02766) (pool C-N after treatment): −1.8 | Ratio X/H Tumor protein D54 (O43399) (pool C-N after treatment): 0.0 | Ratio X/H UTP--glucose-1-phosphate uridylyltransferase (Q16851) (pool C-N after treatment): 0.0 | Ratio X/H UV excision repair protein RAD23 homolog B (P54727) (pool C-N after treatment): −1.5 | Ratio X/H Uronyl 2-sulfotransferase (Q9Y2C2) (pool C-N after treatment): −917.5 | Ratio X/H Versican core protein (P13611) (pool C-N after treatment): 0.0 | Ratio X/H Vinculin (P18206) (pool C-N after treatment): 0.0 | Ratio X/H Vitamin D-binding protein (P02774) (pool C-N after treatment): 0.0 | Ratio X/H Werner syndrome ATP-dependent helicase (Q14191) (pool C-N after treatment): 12.4 | Ratio X/H Zinc finger protein 185 (O15231) (pool C-N after treatment): 1.5 | Ratio X/H Zinc finger protein 335 (Q9H4Z2) (pool C-N after treatment): 0.0 | Ratio X/H Zinc-alpha-2-glycoprotein (P25311) (pool C-N after treatment): 0.0 | Ratio X/H Zyxin (Q15942) (pool C-N after treatment): 2.0 | Ratio X/H Sciellin (O95171) (pool C-R after treatment): 0.0 | Ratio X/H Semenogelin-2 (Q02383) (pool C-R after treatment): 0.0 | Ratio X/H Serine protease 27 (Q9BQR3) (pool C-R after treatment): −1.5 | Ratio X/H Serine/threonine-protein kinase ULK1 (O75385) (pool C-R after treatment): −7.4 | Ratio X/H Serotransferrin (P02787) (pool C-R after treatment): 0.0 | Ratio X/H Serpin B3 (P29508) (pool C-R after treatment): 2.6 | Ratio X/H Serpin B4 (P48594) (pool C-R after treatment): 0.0 | Ratio X/H Serpin B5 (P36952) (pool C-R after treatment): 2.0 | Ratio X/H Serpin B6 (P35237) (pool C-R after treatment): −2.2 | Ratio X/H Serpin B9 (P50453) (pool C-R after treatment): −6.6 | Ratio X/H Serpin B12 (Q96P63) (pool C-R after treatment): −1.7 | Ratio X/H Serpin B13 (Q9UIV8) (pool C-R after treatment): 0.0 | Ratio X/H Serum albumin (P02768) (pool C-R after treatment): −2.1 | Ratio X/H Serum paraoxonase/arylesterase 1 (P27169) (pool C-R after treatment): 0.0 | Ratio X/H Small proline-rich protein 3 (Q9UBC9) (pool C-R after treatment): 4.4 | Ratio X/H Stanniocalcin-1 (P52823) (pool C-R after treatment): 13.3 | Ratio X/H Sulfhydryl oxidase 1 (O00391) (pool C-R after treatment): −1.6 | Ratio X/H Superoxide dismutase [Cu—Zn] (P00441) (pool C-R after treatment): 0.0 | Ratio X/H Suprabasin (Q6UWP8) (pool C-R after treatment): 14.4 | Ratio X/H Syntenin-1 (O00560) (pool C-R after treatment): −2.3 | Ratio X/H Talin-1 (Q9Y490) (pool C-R after treatment): 0.0 | Ratio X/H Tctex1 domain-containing protein 2 (Q8WW35) (pool C-R after treatment): 0.0 | Ratio X/H Teneurin-3 (Q9P273) (pool C-R after treatment): 0.0 | Ratio X/H Thioredoxin (P10599) (pool C-R after treatment): 0.0 | Ratio X/H Transaldolase (P37837) (pool C-R after treatment): 2.4 | Ratio X/H Transmembrane protease serine 11D (O60235) (pool C-R after treatment): 0.0 | Ratio X/H Transthyretin (P02766) (pool C-R after treatment): 0.0 | Ratio X/H Tumor protein D54 (O43399) (pool C-R after treatment): 0.0 | Ratio X/H UTP--glucose-1-phosphate uridylyltransferase (Q16851) (pool C-R after treatment): 0.0 | Ratio X/H UV excision repair protein RAD23 homolog B (P54727) (pool C-R after treatment): −2.2 | Ratio X/H Uronyl 2-sulfotransferase (Q9Y2C2) (pool C-R after treatment): −7.7 | Ratio X/H Versican core protein (P13611) (pool C-R after treatment): 0.0 | Ratio X/H Vinculin (P18206) (pool C-R after treatment): 0.0 | Ratio X/H Vitamin D-binding protein (P02774) (pool C-R after treatment): 0.0 | Ratio X/H Werner syndrome ATP-dependent helicase (Q14191) (pool C-R after treatment): 209.6 | Ratio X/H Zinc finger protein 185 (O15231) (pool C-R after treatment): 1.8 | Ratio X/H Zinc finger protein 335 (Q9H4Z2) (pool C-R after treatment): 0.0 | Ratio X/H Zinc-alpha-2-glycoprotein (P25311) (pool C-R after treatment): 0.0 | Ratio X/H Zyxin (Q15942) (pool C-R after treatment): 0.0
